{"source": "paper PMC7175367", "about": "“1H-Imidazole-2,5-Dicarboxamides as NS4A Peptidomimetics: Identification of a New Approach to Inhibit HCV-NS3 Protease” (Biomolecules, 2020)", "key": {"NS3 domain": {"molecular_target": "T1, NS3 domain (Hepatitis C virus genotype 4a, UniProt O39929)", "T1 construct": "NS3 protease domain 1–181 aa plus an N-terminal T7 tag and C-terminal His tag; made in house; host or cells: E. coli Rosetta (DE3) pLysS, vector pET-3a", "assay": "Differential static light scattering (DSLS) binding test", "design": "species or system HCV genotype 4a", "conditions": "NS3 domain 15.0 µM with equimolar compound; for ΔTagg (liganded protein − free protein): 25.0 to 85.0 °C, n = 3; for ΔTagg as % of the positive control NS4A21`–33`: relative to NS4A21`–33`", "protocol": "We studied the binding of MOC compounds with NS3 by differential static light scattering (DSLS). The NS3 domain stability upon binding to NS4A was measured by monitoring denatured protein aggregation upon increasing the temperature gradually from 25.0 to 85.0 °C (0.5 °C increments) at 600 nm. If a ligand binds to the protein, this increases a protein’s aggregation temperature (Tagg). DSLS provides an advantage of being a label-free binding assay technique and ΔTagg (of liganded protein−free protein) can be used to assess relative binding affinities of ligands. For NS3, the ΔTagg values that occurred upon binding of the MOC compounds were measured and compared to that of NS4A21`–33` as a positive control.\nWe studied the binding of NS4A and its mutants with NS3 by DSLS using Stargazer-2™ (Harbinger Biotechnology and Engineering Corporation, Toronto, Canada). This method assesses protein stability by monitoring aggregate formation using controlled, gradually elevated temperatures. The NS3 domain stability upon binding to NS4A was measured by monitoring denatured protein aggregation upon increasing the temperature from 25.0 to 85.0 °C (0.5 °C increments) at 600 nm. The Tagg values were calculated automatically from raw data using Stargazer-AIR® software. All experiments were repeated three times using the same batch of NS3 protein.\nThe NS3 domain (15.0 µM), alone or mixed with an equimolar equivalent of tested MOC derivative, was added to a binding buffer (20.0 mM HEPES, 10.0 mM DTT, 200 mM NaCl, pH 7.60) to a final volume 100 µL. The mixture was incubated at room temperature with gentle shaking for 2 h. Afterwards, 10 µL of the mixture was transferred into a clear bottomed Nunc 384-well plate and covered by 10 µL paraffin oil to minimize evaporation. Protein aggregation was monitored by tracking the change in scattered light that was detected by a charged coupled device (CCD) camera. Snapshot images of the plate were taken every 0.5 °C. The pixel intensities in a preselected region of each well were integrated using image analysis software to generate a value representative of the total amount of scattered light in that region. These intensities were then plotted against temperature for each sample well and fitted to obtain the aggregation temperature (Tagg). Aggregation was monitored and analyzed to assess the effect of NS4A and its synthetic analogues on the stability of the NS3 as an indicator of binding. Each experiment was repeated three times. Statistical analysis was performed using GraphPad Prism v. 8.0® and Instat® v. 3.10 software."}, "[1]": {"molecular_target": "T2, NS3 (NS4A21`–33` binding site) (Hepatitis C virus genotype 4a, UniProt O39929)", "T2 construct": "NS3 protease domain 1–181 aa plus an N-terminal T7 tag and C-terminal His tag; made in house; host or cells: E. coli Rosetta (DE3) pLysS, vector pET-3a", "assay": "Fluorescence anisotropy (FA) competition assay with FITC-NS4A21`–33`", "design": "species or system HCV genotype 4a", "conditions": "displacement of FITC-NS4A21`–33` (0.10 µM) from NS3, 480/520 nm, compounds 150 to 0.292 µM; for IC50: Competition IC50 ± SEM", "protocol": "This assay measures the potency by which synthetic peptidomimetics affect the binding of labeled NS4A21`–33`. Before testing the MOC compounds, the binding affinity of fluorescein isothiocyanate NS4A21`–33` (FITC-NS4A21`–33`) was first determined (see Supplementary Material Figure S3) based on our previous work. For this particular protein batch, the optimal ratio to be used in the FA affinity test was calculated to be 0.5 µM NS3 and 0.1 µM FITC-NS4A21`–33`. Compounds that efficiently compete with NS4A21`–33` are expected to decrease the fluorescence emitted from NS3/FITC-4A21-34` mixture.\nIn a 96-well plate, we added a place binding buffer (20 mM HEPES, 10 mM DTT, 200 mM NaCl, pH 7.60) and a mixture of NS3 ([…]) and FITC-NS4A (0.10 µM) at the calculated affinity constant concentration. A serial dilution of MOC compounds (dissolved in 1.50% DMSO in binding buffer) (1/2 dilution starting from 150 to 0.292 µM) were mixed gently for 60 min in a dark place and the fluorescence was measured at excitation/emission wavelengths of 480/520 nm. The competition IC50 was calculated according to the recommended equation embedded in GraphPad Prism v. 8.0® and Instat® software."}, "NS3 protease": {"molecular_target": "T3, NS3 protease (Hepatitis C virus genotype 4a, UniProt O39929)", "T3 construct": "NS3 protease domain 1–181 aa plus an N-terminal T7 tag and C-terminal His tag; made in house; host or cells: E. coli Rosetta (DE3) pLysS, vector pET-3a", "assay": "Enzyme inhibition assay (SensoLyte 520 HCV Protease Assay Kit, modified)", "assay_type": "biochemical, HCV genotype 4a", "protocol": "MOC-24 was selected for a qualitative testing for its inhibition of NS3 protease activity. Experiments were carried out using the SensoLyte® 520 HCV Protease Assay Kit. This assay measures the recovered fluorescence emitted upon cleavage of the labeled peptide substrate representing the NS4A/NS4B junction. Considering that NS3 without NS4A is almost a thousand-times less catalytic, the method was modified to suit the purpose of our allosteric inhibition assay. […] As a positive control, an equimolar mixture of NS4A with NS3 (equimolar, 2.00 µM each) caused only a 9-fold increase in the catalytic activity of the enzyme (Figure 5), which was far less than the reported value, possibly due to the large amount of protein used.\nThe assay was performed using SensoLyte-520® HCV protease assay kit fluorometric* (Anaspec, Fremont, CA, USA) according to a modified procedure to suit the purpose of determination of allosteric inhibition. NS3 (2.00 µM) was mixed with MOC-24 (4.00 µM) for 15.0 min. Afterwards, 5-FAM/QXL™520 fluorescence resonance energy transfer (FRET) peptide was added as instructed by the assay kit manual. […] In the FRET peptide, the fluorescence of 5-FAM is quenched by QXL™520. Upon cleavage into two separate fragments by HCV NS3/4A protease, the fluorescence of 5-FAM is recovered, and can be monitored at 490 nm/520 nm (excitation/emission). […]"}, "[2]": {"molecular_target": "HCV NS3 protease domain, genotype 4a (1-181 aa, N-terminal T7 tag, C-terminal His tag) (hepatitis C virus genotype 4a)"}}, "note": "Values joined by “and” are separate entries in the source; they are usually repeats but may differ in a detail not shown here. Equal values may be shown once. “Also recorded” adds a separate entry of the source."}
{"compound": "CCCCCNC(=O)c1ncc(C(=O)NCC(=O)NC)[nH]1", "note": "[MOC-11, N^5-(2-(Methylamino)-2-oxoethyl)-N^2-(n-pentyl)-1H-imidazole-2,5-dicarboxamide]", "values": [{"measurement": "ΔTagg (liganded protein − free protein)", "setting": "NS3 domain", "result": 0.82, "unit": "°C"}, {"measurement": "ΔTagg as % of the positive control NS4A21`–33`", "setting": "NS3 domain", "result": 54.6, "unit": "%"}, {"measurement": "IC50", "setting": "[1]", "result": "17.3 ± 1.22", "unit": "µM"}, {"measurement": "melting point", "result": 87, "unit": "°C"}]}
{"compound": "CCCCCNC(=O)c1ncc(C(=O)NCCCCNC(=N)N)[nH]1", "note": "[MOC-23, N^5-(4-Guanidinobutyl)-N^2-(n-pentyl)-1H-imidazole-2,5-dicarboxamide]", "values": [{"measurement": "ΔTagg (liganded protein − free protein)", "setting": "NS3 domain", "result": 0.32, "unit": "°C"}, {"measurement": "ΔTagg as % of the positive control NS4A21`–33`", "setting": "NS3 domain", "result": 19.5, "unit": "%"}, {"measurement": "IC50", "setting": "[1]", "result": "4.7 ± 0.327", "unit": "µM"}]}
{"compound": "CCCCCCNC(=O)c1ncc(C(=O)NCCCCNC(=N)N)[nH]1", "note": "[MOC-24, N^5-(4-Guanidinobutyl)-N^2-(n-hexyl)-1H-imidazole-2,5-dicarboxamide]", "values": [{"measurement": "ΔTagg (liganded protein − free protein)", "setting": "NS3 domain", "result": 0.60, "unit": "°C"}, {"measurement": "ΔTagg as % of the positive control NS4A21`–33`", "setting": "NS3 domain", "result": "39.8% and 40%"}, {"measurement": "NS3 catalytic activity", "setting": "NS3 protease; qualitative, NS3 2.00 µM, MOC-24 4.00 µM, 5-FAM/QXL520 FRET peptide", "result": "inhibited NS3 protease activity; also recorded: complete loss of NS3 catalytic activity"}, {"measurement": "IC50", "setting": "[1]", "result": "1.9 µM and 1.91 µM"}]}
{"compound": "N=C(N)NCCCCNC(=O)c1cnc(C(=O)NCCOC2CCCCC2)[nH]1", "note": "[MOC-26, N^2-(2-(Cyclohexyloxy)ethyl)-N^5-(4-guanidinobutyl)-1H-imidazole-2,5-dicarboxamide]", "values": [{"measurement": "IC50", "setting": "[1]", "result": "> 100", "unit": "µM"}]}
{"compound": "N=C(N)NCCCCNC(=O)c1cnc(C(=O)NCCCOC2CCCCC2)[nH]1", "note": "[MOC-27, N^2-(3-(Cyclohexyloxy)propyl)-N^5-(4-guanidinobutyl)-1H-imidazole-2,5-dicarboxamide]", "values": [{"measurement": "IC50", "setting": "[1]", "result": "> 100", "unit": "µM"}]}
{"compound": "N=C(N)NCCCCNC(=O)c1cnc(C(=O)NCCOc2ccccc2)[nH]1", "note": "[MOC-28, N^5-(4-Guanidinobutyl)-N^2-(2-phenoxyethyl)-1H-imidazole-2,5-dicarboxamide]", "values": [{"measurement": "IC50", "setting": "[1]", "result": "> 100", "unit": "µM"}, {"measurement": "melting point", "result": "137 to 139", "unit": "°C"}]}
{"compound": "N=C(N)NCCCCNC(=O)c1cnc(C(=O)NCCCOc2ccccc2)[nH]1", "note": "[MOC-29, N^5-(4-Guanidinobutyl)-N^2-(3-phenoxypropyl)-1H-imidazole-2,5-dicarboxamide]", "values": [{"measurement": "IC50", "setting": "[1]", "result": "> 100", "unit": "µM"}, {"measurement": "melting point", "result": "135 to 138", "unit": "°C"}]}
{"compound": "CC(C)OCCCCNC(=O)c1ncc(C(=O)NCCCCNC(=N)N)[nH]1", "note": "[MOC-30, N^5-(4-Guanidinobutyl)-N^2-(4-isopropoxybutyl)-1H-imidazole-2,5-dicarboxamide]", "values": [{"measurement": "IC50", "setting": "[1]", "result": "28.5 ± 8.55", "unit": "µM"}]}
{"compound": "CC(C)CCCCCNC(=O)c1ncc(C(=O)NCCCCNC(=N)N)[nH]1", "note": "[MOC-31, N^5-(4-Guanidinobutyl)-N^2-(6-methylheptyl)-1H-imidazole-2,5-dicarboxamide]", "values": [{"measurement": "IC50", "setting": "[1]", "result": "12.1 ± 1.69", "unit": "µM"}, {"measurement": "melting point", "result": "83 to 84", "unit": "°C"}]}
{"compound": "CCC(C)CCNC(=O)c1ncc(C(=O)NCCCCNC(=N)N)[nH]1", "note": "(centres unmarked) [MOC-32, N^5-(4-guanidinobutyl)-N^2-(3-methylpentyl)-1H-imidazole-2,5-dicarboxamide]", "values": [{"measurement": "IC50", "setting": "[1]", "result": "7.7 µM and 7.74 µM"}]}
{"compound": "CCCCCCNC(=O)c1ncc(C(=O)NCc2ccccn2)[nH]1", "note": "[MOC-33, N^2-(n-Hexyl)-N^5-(pyridin-2-ylmethyl)-1H-imidazole-2,5-dicarboxamide]", "values": [{"measurement": "ΔTagg (liganded protein − free protein)", "setting": "NS3 domain", "result": "much weaker binding"}, {"measurement": "IC50", "setting": "[1]", "result": "40.3 ± 24", "unit": "µM"}, {"measurement": "Competition IC50 ± SEM", "setting": "[1]", "result": "much weaker binding"}]}
{"compound": "LL-G21SVVIVGRIVLSG33-LL [NS4A]", "values": [{"measurement": "fold increase in the catalytic activity of the enzyme", "setting": "NS3 protease; positive control, NS4A equimolar with NS3, 2.00 µM each", "result": 9, "unit": "fold"}]}
{"compound": "NS4A_(21`–33`) peptide, LL-G21…33-LL", "values": [{"measurement": "NS3 protease activity (SensoLyte 520 HCV protease assay, 5-FAM/QXL520 FRET peptide); NS3 2.00 µM with NS4A 2.00 µM against NS3 alone", "setting": "[2]", "result": 9, "unit": "fold"}]}
